Where a SMILES comes first, the peptide text is derived from it.
Legend:
Type in all cases: functional
Schistocerca gregaria [1] = experiment: Tested for dose dependent release of inositol phosphate (InsP4) at 1 uM
Schistocerca gregaria [2] = experiment: Tested for dose dependent release of inositol phosphate (InsP3) at 1 uM
Schistocerca gregaria [3] = experiment: Tested for dose dependent release of inositol phosphate (InsP4) at 10 nM
Schistocerca gregaria [4] = experiment: Tested for dose dependent release of inositol phosphate (InsP3) at 10 nM
Schistocerca gregaria [5] = experiment: Tested for dose dependent release of inositol phosphate (InsP4) at 1 uM in the presence of compound 1 (0.5 uM)
Schistocerca gregaria [6] = experiment: Tested for dose dependent release of inositol phosphate (InsP3) at 1 uM in the presence of compound 1 (0.5 uM)
Schistocerca gregaria [7] = experiment: Tested for dose dependent release of inositol phosphate (InsP3) at 0.5 uM
Schistocerca gregaria [8] = experiment: Tested for dose dependent release of inositol phosphate (InsP4) at 0.5 uM

Compound | Increase in DPM (Schistocerca gregaria [1]) | Increase in DPM (Schistocerca gregaria [2]) | Increase in DPM (Schistocerca gregaria [3]) | Increase in DPM (Schistocerca gregaria [4]) | Increase in DPM (Schistocerca gregaria [5]) | Increase in DPM (Schistocerca gregaria [6]) | Increase in DPM (Schistocerca gregaria [7]) | Increase in DPM (Schistocerca gregaria [8])
CC(C)C[C@@H](NC(=O)[C@@](C)(Cc1ccc(O)cc1)NC(=O)[C@@H](N)CCCN=C(N)N)C(=O)N1CCC[C@@H]1C(=O)N[C@H](C(=O)O)[C@H](C)O | 250 (mg of protein)-1 | 400 (mg of protein)-1 | 250 (mg of protein)-1 | 500 (mg of protein)-1 | – | – | – | –
CC(C)C[C@@H]1NC(=O)[C@H](Cc2ccc(O)cc2)NC(=O)[C@H](CCCN=C(N)N)NC(=O)[C@H]([C@@H](C)O)NC(=O)[C@@H]2CCCN2C1=O (HELM PEPTIDE1{L.P.T.R.Y}$PEPTIDE1,PEPTIDE1,1:R1-5:R2$$$V2.0) | 300 (mg of protein)-1 | 500 (mg of protein)-1 | 750 (mg of protein)-1 | 1200 (mg of protein)-1 | – | – | – | –
CC(C)C[C@H](NC(=O)[C@H](Cc1ccc(O)cc1)N(C)C(=O)[C@@H](N)CCCN=C(N)N)C(=O)N1CCC[C@H]1C(=O)N[C@H](C(=O)O)[C@@H](C)O (HELM PEPTIDE1{R.[meY].L.P.T}$$$$V2.0) | – | – | – | – | 1500 (mg of protein)-1 | 3600 (mg of protein)-1 | – | –
H-RYLPT-OH | – | – | 1100 (mg of protein)-1 | 1250 (mg of protein)-1 | – | – | 3400 (mg of protein)-1 | 1600 (mg of protein)-1

Source: ChEMBL document CHEMBL1128101, “Cycloproctolin and [-Methyl-l-Tyr]-proctolin are potent antagonists of proctolin-induced inositol phosphate production in locust foregut homogenates” (1995)
